Reference: ChEMBL document CHEMBL1147802, “Diarylacetylene piperidinyl amides as novel anxiolytics” (Bioorg Med Chem Lett, 2006)

What was measured:
[1] = Stability in rat liver microsomes after 90 min; format: ADME, Microsome; conditions: read-out: Stability
[2] = Stability in human liver microsomes after 90 min; format: ADME, Microsome; conditions: read-out: Stability
Mus musculus [3] = experiment: Anxiolytic activity in orally dosed mouse assessed as reversal of DOI-induced head shake; format: functional; conditions: po, read-out: MED
Mus musculus [4] = experiment: Anxiolytic activity in mouse after oral administration by EPM test; format: functional; conditions: read-out: MED
Substance-P receptor [5] = target: T1, Substance-P receptor (Homo sapiens, UniProt P25103); experiment: Inhibition of human NK1 receptor expressed in U373MG cells at 10 uM; format: cell-based; conditions: U-373MG ATCC
Homo sapiens = species: Homo sapiens; experiment: Inhibition of GABA transporter at 10 uM
[6] = Oral bioavailability in rat at 40 mg/kg, po; format: ADME, organism-based; conditions: in vivo
[7] = Half life in rat at 40 mg/kg, po; format: ADME, organism-based; parameters: dose 40 mg/kg, route oral; conditions: in vivo
[8] = target: T2, Substance-K receptor (Homo sapiens) (UniProt P21452); experiment: Inhibition of human NK2 receptor expressed in CHO cells at 10 uM; format: cell-based
T2 sequence (whole entry): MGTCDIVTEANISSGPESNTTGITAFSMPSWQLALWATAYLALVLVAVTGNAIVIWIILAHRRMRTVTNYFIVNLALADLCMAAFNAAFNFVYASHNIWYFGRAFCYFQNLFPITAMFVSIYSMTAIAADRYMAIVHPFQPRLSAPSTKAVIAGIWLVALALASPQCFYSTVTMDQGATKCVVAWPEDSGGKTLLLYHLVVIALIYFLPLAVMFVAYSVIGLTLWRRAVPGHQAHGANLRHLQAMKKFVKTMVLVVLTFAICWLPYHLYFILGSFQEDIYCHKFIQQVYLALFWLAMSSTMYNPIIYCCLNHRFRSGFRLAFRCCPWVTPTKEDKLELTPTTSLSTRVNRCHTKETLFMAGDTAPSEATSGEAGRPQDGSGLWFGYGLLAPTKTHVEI

Substance-K receptor = target: T3, Substance-K receptor (Homo sapiens, UniProt P21452); experiment: Inhibition of human NK2 receptor expressed in CHO cells; format: cell-based
T3 sequence (P21452 whole entry): T2 sequence (whole entry)

Substance-P receptor [9] = target: T1, Substance-P receptor; experiment: Inhibition of human NK1 receptor expressed in U373MG cells; format: cell-based, U-373MG ATCC
[10] = Oral bioavailability in rat at 3 mg/kg, po; format: ADME, organism-based; conditions: in vivo
[11] = Oral bioavailability in rat at 10 mg/kg, po; format: ADME, organism-based; conditions: in vivo
[12] = Stability in human liver microsomes after 60 min; format: ADME, Microsome; conditions: read-out: Stability
[13] = Half life in rat at 15 mg/kg, po; format: ADME, organism-based; parameters: dose 15 mg/kg, route oral; conditions: in vivo
[14] = Oral bioavailability in rat at 15 mg/kg, po; format: ADME, organism-based; conditions: in vivo
[15] = Stability in rat liver microsomes after 60 min; format: ADME, Microsome; conditions: read-out: Stability
[16] = Half life in cynomolgus monkey; format: ADME, organism-based, Macaca fascicularis; conditions: in vivo
[17] = Bioavailability in cynomolgus monkey; format: ADME, organism-based, Macaca fascicularis; conditions: in vivo

T1 sequence (P25103 whole entry): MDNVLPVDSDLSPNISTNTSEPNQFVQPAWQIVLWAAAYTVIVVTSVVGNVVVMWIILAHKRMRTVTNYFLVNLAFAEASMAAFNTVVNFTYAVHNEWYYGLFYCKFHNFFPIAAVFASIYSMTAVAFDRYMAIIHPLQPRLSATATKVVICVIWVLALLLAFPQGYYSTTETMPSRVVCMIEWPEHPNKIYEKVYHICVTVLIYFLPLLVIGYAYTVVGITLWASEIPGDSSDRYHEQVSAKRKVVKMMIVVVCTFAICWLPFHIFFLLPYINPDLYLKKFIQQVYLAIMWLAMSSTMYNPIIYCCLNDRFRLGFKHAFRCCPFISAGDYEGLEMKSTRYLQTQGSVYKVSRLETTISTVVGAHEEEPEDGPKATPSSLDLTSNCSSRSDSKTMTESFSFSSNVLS

Compound `O=C(CC1CCN(C(=O)c2cccc(C#Cc3ccccn3)c2)CC1)Nc1ccccc1` has a remaining at 1.5 h [1] of 63%, a remaining at 1.5 h [2] of 35% and a minimal effective dose (Mus musculus [3]) of 20 mg/kg. The minimal effective dose (Mus musculus [4]) was 1 mg/kg, the inhibition (Substance-P receptor [5]) was 37% and the inhibition (Homo sapiens) was 60%. The bioavailability [6] was 65%, the half-life [7] was 3.1 h and the inhibition [8] was 11%.

For `O=C(CC1CCN(C(=O)c2cccc(C#Cc3ccccn3)c2)CC1)Nc1ccccc1F`, the inhibition (Substance-P receptor [5]) was 96%, the IC50 (Substance-K receptor) was 550 nM and the IC50 (Substance-P receptor [9]) was 640 nM. It also gave an inhibition [8] of 97%.

Work on `O=C(CC1CCN(C(=O)c2cccc(C#Cc3ccccn3)c2)CC1)Nc1ccc(O)cc1` yielded a remaining at 1.5 h [1] of 97%, a remaining at 1.5 h [2] of 80% and a minimal effective dose (Mus musculus [3]) of 20 mg/kg. The minimal effective dose (Mus musculus [4]) was 3 mg/kg, the bioavailability [10] was less than 2% and the inhibition (Substance-P receptor [5]) was 18%. The bioavailability [11] was less than 2%.

For `O=C(CC1CCN(C(=O)c2cccc(C#Cc3ccccn3)c2)CC1)Nc1ccc(F)cc1`, the inhibition (Substance-P receptor [5]) was 96%, the IC50 (Substance-K receptor) was 1000 nM and the IC50 (Substance-P receptor [9]) was 1000 nM. It also gave an inhibition [8] of 96%.

For `O=C(CC1CCN(C(=O)c2cccc(C#Cc3ccccc3)c2)CC1)Nc1ccccc1`, the inhibition (Substance-P receptor [5]) was 28% and the inhibition [8] was 7%.

With `O=C(CC1CCN(C(=O)c2cccc(C#Cc3ccccn3)c2)CC1)Nc1ccc(F)cc1F` the remaining at 1 h [12] was 15%, the minimal effective dose (Mus musculus [3]) was 0.1 mg/kg and the minimal effective dose (Mus musculus [4]) was 1 mg/kg. The inhibition (Substance-P receptor [5]) was 16%, the half-life [13] was 2.7 h and the bioavailability [14] was 7%. For the same compound, the remaining at 1 h [15] was 0.1%, the half-life [16] was 3.1 h and the bioavailability [17] was 38%. It also gave an inhibition [8] of 8%.
